In ChEMBL document CHEMBL1153255, “Studies on irreversible inhibition of serine proteases by -sulfonyloxyketone derivatives” (Bioorg Med Chem Lett, 1996):

Legend:
[1] = target: Chymotrypsinogen A (Bos taurus) (UniProt P00766); test: Compound was evaluated for inhibitory activity against alpha- chymotrypsin
[2] = target: Chymotrypsinogen A (Bos taurus) (UniProt P00766); test: Compound was evaluated for its inhibitory activity against alpha- chymotrypsin
[3] = target: T1, Chymotrypsin-like elastase family member 2A (Sus scrofa) (UniProt P08419); test: Compound was evaluated for inhibitory activity against porcine pancreatic elastase
T1 sequence (whole entry): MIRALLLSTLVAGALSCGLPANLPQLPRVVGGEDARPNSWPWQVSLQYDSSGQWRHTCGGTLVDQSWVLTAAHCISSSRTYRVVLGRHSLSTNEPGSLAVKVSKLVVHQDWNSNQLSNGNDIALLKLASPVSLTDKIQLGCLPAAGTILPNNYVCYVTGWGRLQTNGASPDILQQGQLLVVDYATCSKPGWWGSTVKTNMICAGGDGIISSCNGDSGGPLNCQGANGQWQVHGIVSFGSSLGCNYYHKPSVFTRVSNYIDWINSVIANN

[4] = target: T1, Chymotrypsin-like elastase family member 2A (Sus scrofa); test: Compound was evaluated for inhibitory activity against porcine pancreatic elastase; No inactivation

**Q.** With CC(=O)C(Cc1ccccc1)OS(C)(=O)=O (configuration not stated) as the compound, how does the I [1] read?
**A.** 2.31 mM

**Q.** What about the K obs / 1 [1] of the same compound?
**A.** 0.33 M⁻¹ s⁻¹

**Q.** For Cc1ccc(S(=O)(=O)N[C@@H](Cc2ccccc2)C(=O)CCl)cc1, which I [1] is on record?
**A.** 0.057 mM

**Q.** What about the K obs / 1 [2] of the same compound?
**A.** 7.7 M⁻¹ s⁻¹

**Q.** How did the I [1] turn out when CC(=O)C(C)OS(=O)(=O)c1ccccc1 (configuration not stated) was run?
**A.** 3.28 mM

**Q.** And the K obs / 1 [1]?
**A.** 0.01 M⁻¹ s⁻¹

**Q.** What about the I [3] of the same compound?
**A.** 2.01 mM

**Q.** And the K obs / 1 [3]?
**A.** 0.19 M⁻¹ s⁻¹

**Q.** Which results are given for CC(=O)C(Cc1ccccc1)OS(=O)(=O)c1ccc(C)cc1 (configuration not stated)?
**A.** K obs / 1 [4]: No inhibition; I [1]: 0.096 mM; K obs / 1 [1]: 10.5 M⁻¹ s⁻¹; I [3]: 0.103 mM
